Measurements reported in US4420484A, “Basic amino or ammonium antimicrobial agent-polyethylene glycol ester surfactant-betaine and/or amine oxide surfactant compositions and method of use therof” (Sterling Drug Inc., priority 1981, dated 1983).

Tested on: Staphylococcus aureus ATCC 6538
Assay: Compatibility with prototype vehicle, serial dilution test (MIC)
Assay type: cell-based
Details: Id expressed as free base, IVa-IVc expressed as cation, 16-18 h, 37° C
Protocol: Compatability of the antimicrobial agents of Formula Id, Formula IIa, Formula IVa (A=Br), Formula IVb (A=Br) and Formula IVc (A=Br) with a prototype vehicle of the invention was tested by a serial dilution test against Staphylococcus aureus ATCC 6538. Volumes of two milliliters were used. Dilutions were in tryptose-phosphate broth. Incubation was for 16-18 hours at 37° C. Growth was verified with 2,3,5-triphenyltetrazoliumchloride. The inoculum was 1.8×10^5 viable cells per tube. There follows the formula of the prototype vehicle. […]

Row | SMILES | Minimum Inhibitory Concentration (MIC) (added vehicle 0 μg/ml) [µg/mL] | Minimum Inhibitory Concentration (MIC) (added vehicle 15.6 μg/ml) [µg/mL] | Minimum Inhibitory Concentration (MIC) (added vehicle 31.2 μg/ml) [µg/mL] | Minimum Inhibitory Concentration (MIC) (added vehicle 62.5 μg/ml) [µg/mL] | Minimum Inhibitory Concentration (MIC) (added vehicle 125.0 μg/ml) [µg/mL] | Minimum Inhibitory Concentration (MIC) (added vehicle 250.0 μg/ml) [µg/mL] | Minimum Inhibitory Concentration (MIC) (added vehicle 500.0 μg/ml) [µg/mL] | Minimum Inhibitory Concentration (MIC) (added vehicle 1000.0 μg/ml) [µg/mL] | Minimum Inhibitory Concentration (MIC) (added vehicle 2000.0 μg/ml) [µg/mL] | Minimum Inhibitory Concentration (MIC) (added vehicle 4000.0 μg/ml) [µg/mL] | Minimum Inhibitory Concentration (MIC) (added vehicle 8000.0 μg/ml) [µg/mL]
1 | CCCCCCCCCCCCCC[N+](C)(C)Cc1ccccc1 [Compound of Formula IIa, benzalkonium chloride, reference compound] | 0.5 | 0.5 | 0.5 | 0.5 | 0.5 | 0.5 | 0.5 | 1.0 | 1.0 | 1.95 | 1.95
2 | CCCCCCCN=c1ccn(CCCCCCCCCCCCn2ccc(=NCCCCCCC)cc2)cc1 [Compound of Formula IVa] | 0.39 | 0.195 | 0.39 | 0.39 | 0.10 | 0.10 | 0.10 | 0.195 | 0.10 | 0.195 | 0.10

Next, values leading:

Row | Minimum Inhibitory Concentration (MIC) (added vehicle 0 μg/ml) [µg/mL] | Minimum Inhibitory Concentration (MIC) (added vehicle 15.6 μg/ml) [µg/mL] | Minimum Inhibitory Concentration (MIC) (added vehicle 31.2 μg/ml) [µg/mL] | Minimum Inhibitory Concentration (MIC) (added vehicle 62.5 μg/ml) [µg/mL] | Minimum Inhibitory Concentration (MIC) (added vehicle 125.0 μg/ml) [µg/mL] | Minimum Inhibitory Concentration (MIC) (added vehicle 250.0 μg/ml) [µg/mL] | Minimum Inhibitory Concentration (MIC) (added vehicle 500.0 μg/ml) [µg/mL] | Minimum Inhibitory Concentration (MIC) (added vehicle 1000.0 μg/ml) [µg/mL] | Minimum Inhibitory Concentration (MIC) (added vehicle 2000.0 μg/ml) [µg/mL] | Minimum Inhibitory Concentration (MIC) (added vehicle 4000.0 μg/ml) [µg/mL] | Minimum Inhibitory Concentration (MIC) (added vehicle 8000.0 μg/ml) [µg/mL] | SMILES
3 | 0.5 | 0.5 | 0.5 | 0.5 | 0.5 | 0.25 | 0.125 | 0.125 | 0.125 | 0.25 | 0.25 | CCCCCCCCN=c1ccn(CCCCCCCCCCn2ccc(=NCCCCCCCC)cc2)cc1 [Compound of Formula IVb]
4 | 0.25 | 0.25 | 0.25 | 0.25 | 0.125 | 0.0625 | 0.125 | 0.125 | 0.125 | 0.25 | 0.25 | CCCCC(CC)CN=c1ccn(CCCCCCCCCCCCn2ccc(=NCC(CC)CCCC)cc2)cc1 (stereo not shown) [Compound of Formula IVc]
5 | 0.25 | 0.25 | 0.25 | 0.25 | 0.25 | 0.25 | 0.25 | 0.25 | 0.50 | 0.50 | 0.50 | CCCCCCCNC(=N)NC(=N)NCCCCCCNC(=N)NC(=N)NCCCCCCC [Compound of Formula Id]
